# From ChEMBL document CHEMBL1833806, “Mapping the intestinal alpha-glucogenic enzyme specificities of starch digesting maltase-glucoamylase and sucrase-isomaltase” (Bioorg Med Chem, 2011)
# Legend:
# Mus musculus [1] = species: Mus musculus; experiment: Selectivity ratio of Ki for mouse ctSI to Ki for mouse ctMGAM-N2
# [2] = Selectivity ratio of Ki for human ntMGAM to Ki for mouse ctMGAM-N20
# [3] = Inhibition of human ntMGAM expressed in Drosophila S2 cells assessed as amount of glucose produced using maltose as a substrate after 45 mins by glucose oxidase assay; assay type: cell-based
# [4] = Inhibition of mouse his-tagged ctSI expressed in Sf9 cells assessed as amount of glucose produced using maltose as a substrate after 45 mins by glucose oxidase assay
# [5] = Selectivity ratio of Ki for human ntMGAM to Ki for mouse ctSI
# [6] = Inhibition of mouse his-tagged ctMGAM-N2 expressed in Sf9 cells assessed as amount of glucose produced using maltose as a substrate after 45 mins by glucose oxidase assay
# [7] = Inhibition of human ntSI expressed in Drosophila S2 cells assessed as amount of glucose produced using maltose as a substrate after 45 mins by glucose oxidase assay; assay type: cell-based
# [8] = Selectivity ratio of Ki for human ntMGAM to Ki for mouse ctMGAM-N2
# [9] = Selectivity ratio of Ki for human ntSI to Ki for mouse ctMGAM-N2
# [10] = Selectivity ratio of Ki for human ntSI to Ki for mouse ctSI
# [11] = Inhibition of mouse his-tagged ctMGAM-N20 expressed in Sf9 cells assessed as amount of glucose produced using maltose as a substrate after 45 mins by glucose oxidase assay
# Mus musculus [12] = species: Mus musculus; experiment: Selectivity ratio of Ki for mouse ctSI to Ki for mouse ctMGAM-N20
# [13] = Selectivity ratio of Ki for human ntSI to Ki for mouse ctMGAM-N20
# Mus musculus [14] = species: Mus musculus; experiment: Selectivity ratio of Ki for mouse ctMGAM-N20 to Ki for mouse ctMGAM-N2
# [15] = Activity of mouse his-tagged ctMGAM-N2 expressed in Sf9 cells assessed as amount of glucose produced using maltose as a substrate after 45 mins by glucose oxidase assay
# [16] = Activity of human ntSI expressed in Drosophila S2 cells assessed as amount of glucose produced after 45 mins by glucose oxidase assay; assay type: cell-based
# [17] = Activity of mouse his-tagged ctMGAM-N20 expressed in Sf9 cells assessed as amount of glucose produced using maltose as a substrate after 45 mins by glucose oxidase assay
# [18] = Activity of mouse his-tagged ctMGAM-N2 expressed in Sf9 cells assessed as amount of glucose produced after 45 mins by glucose oxidase assay
# [19] = Activity of mouse his-tagged ctSI expressed in Sf9 cells assessed as amount of glucose produced after 45 mins by glucose oxidase assay
# Mus musculus [20] = species: Mus musculus; experiment: Ratio of Km for mouse ctMGAM-N20 to Km for mouse ctMGAM-N2
# [21] = Activity of human ntMGAM expressed in Drosophila S2 cells assessed as amount of glucose produced after 45 mins by glucose oxidase assay; assay type: cell-based
# [22] = Activity of mouse his-tagged ctMGAM-N20 expressed in Sf9 cells assessed as amount of glucose produced after 45 mins by glucose oxidase assay
# Homo sapiens = species: Homo sapiens; experiment: Selectivity ratio of Ki for human ntMGAM to Ki for human ntSI
# Mus musculus [23] = species: Mus musculus; experiment: Selectivity ratio of Ki for mouse ctMGAM-N2 to Ki for mouse ctSI
# Mus musculus [24] = species: Mus musculus; experiment: Selectivity ratio of Ki for mouse ctMGAM-N2 to Ki for mouse ctMGAM-N20
Structure (SMILES),Ratio Ki [2],Ki [3] [µM],Ki [4] [µM],Ratio Ki [5],Ki [6] [µM],Ki [7] [µM],Ratio Ki [8],Ki [11] [µM],other results
C[C@H]1O[C@H](O[C@H]2[C@H](O)[C@@H](O)[C@@H](O[C@H]3[C@H](O)[C@@H](O)C(O)O[C@@H]3CO)O[C@@H]2CO)[C@H](O)[C@@H](O)[C@@H]1N[C@H]1C=C(CO)[C@@H](O)[C@H](O)[C@H]1O (stereo not given in full) [ACARBOSE],1000,62,0.246,100,0.009,14,1000,0.028,Ratio Ki (Mus musculus [1]): 1000; Ratio Ki [9]: 1000; Ratio Ki [10]: 100; Ratio Ki (Mus musculus [12]): 1000; Ratio Ki [13]: 1000
O=S(=O)([O-])O[C@@H](CO)[C@H](O)C[Se+]1C[C@@H](O)[C@H](O)[C@H]1CO (stereo not given in full) [BLINTOL],,0.49,0.029,,0.018,0.16,10,0.013,Ratio Ki (Mus musculus [1]): 10; Ratio Ki (Mus musculus [14]): 10; Ratio Ki [9]: 10
OC[C@@H]1[C@@H](O)[C@H](O)C[S+]1C[C@@H](O)[C@@H](O)[C@H](O)[C@H](O)[C@@H](O)CO (stereo not given in full) [DE-O-SULFONATED KOTALANOL],,0.03,0.026,,0.026,0.012,,0.078,
O=S(=O)([O-])O[C@@H]([C@H](O)[C@H](O)[C@@H](O)CO)[C@H](O)C[S+]1C[C@@H](O)[C@H](O)[C@H]1CO (stereo not given in full) [KOTALANOL],,0.19,0.042,,0.064,0.6,,0.092,
OC[C@H]1O[C@H](O[C@H]2[C@H](O)[C@@H](O)[C@H](O)O[C@@H]2CO)[C@H](O)[C@@H](O)[C@@H]1O [MALTOSE],,,,,,,,,Km [15]: 1590 µM; Km [16]: 7100 µM; Km [17]: 1910 µM; Km [4]: 2500 µM; Km [18]: 1590 µM; Km [19]: 2500 µM; Ratio (Mus musculus [20]): 4; Km [21]: 4300 µM; Km [22]: 1910 µM
OCCN1C[C@H](O)[C@@H](O)[C@H](O)[C@H]1CO [MIGLITOL],4,1,0.13,4,0.211,0.148,4,0.23,Ratio Ki (Homo sapiens): 4
O=S(=O)([O-])O[C@@H](CO)[C@H](O)C[S@+]1C[C@@H](O)[C@H](O)[C@H]1CO [SALACINOL],5,,0.047,5,0.213,0.277,,0.058,Ratio Ki (Mus musculus [23]): 5; Ratio Ki (Mus musculus [24]): 4; Ratio Ki [10]: 5; Ratio Ki [13]: 5
